Residual kinase activity data for 2 molecules are collected here from publication PMC11167047 (Cell Death Discovery, 2024).

What all share (assay): kinome screen (33PanQinase)
Common to all, as to assay type: biochemical

For experiment [1], the target named is T1, JNK1 (Homo sapiens, UniProt P45983).
T1 construct: purchased Reaction Biology Europe GmbH (formerly ProQinase)
On the procedure: (§1) The Kinome Screening was performed by Reaction Biology Europe GmbH (http://reactionbiology.com; Freiburg i. Br., Germany).

Experiment [2] concerns the target T2, MYLK3 (Homo sapiens, UniProt Q32MK0).
T2 construct: purchased Reaction Biology Europe GmbH (formerly ProQinase)
T2 sequence (Q32MK0 1-819): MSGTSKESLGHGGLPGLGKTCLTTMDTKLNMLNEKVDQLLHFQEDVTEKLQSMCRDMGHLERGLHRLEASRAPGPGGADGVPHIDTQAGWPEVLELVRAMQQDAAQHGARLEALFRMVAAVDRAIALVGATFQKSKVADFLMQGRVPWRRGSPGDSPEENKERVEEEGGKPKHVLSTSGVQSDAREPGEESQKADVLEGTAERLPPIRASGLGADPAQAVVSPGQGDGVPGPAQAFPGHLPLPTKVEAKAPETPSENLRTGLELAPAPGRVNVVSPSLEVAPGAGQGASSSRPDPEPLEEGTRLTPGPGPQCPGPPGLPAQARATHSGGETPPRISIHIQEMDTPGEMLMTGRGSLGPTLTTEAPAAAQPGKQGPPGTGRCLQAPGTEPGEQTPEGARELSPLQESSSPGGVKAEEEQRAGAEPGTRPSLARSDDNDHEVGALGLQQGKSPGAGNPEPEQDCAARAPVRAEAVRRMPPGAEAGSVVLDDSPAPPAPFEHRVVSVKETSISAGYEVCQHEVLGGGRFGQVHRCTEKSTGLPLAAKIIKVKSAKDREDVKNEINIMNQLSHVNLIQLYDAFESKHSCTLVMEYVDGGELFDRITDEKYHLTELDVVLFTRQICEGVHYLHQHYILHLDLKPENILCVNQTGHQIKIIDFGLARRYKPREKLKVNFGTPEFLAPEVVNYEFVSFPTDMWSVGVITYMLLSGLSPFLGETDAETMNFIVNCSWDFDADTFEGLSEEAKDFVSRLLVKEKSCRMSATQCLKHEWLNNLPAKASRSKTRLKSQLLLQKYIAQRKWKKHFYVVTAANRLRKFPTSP
On the procedure: as §1

Experiment [3] addresses T3, BUB1B (Homo sapiens, UniProt O60566).
T3 construct: purchased Reaction Biology Europe GmbH (formerly ProQinase)
As to the method:
as §1

Experiment [4] has as its target T4, TRKC (Homo sapiens, UniProt Q16288).
T4 construct: purchased Reaction Biology Europe GmbH (formerly ProQinase)
As to the method: as §1

The target of experiment [5] is T5, CK1γ3 (Homo sapiens, UniProt Q9Y6M4).
T5 construct: purchased Reaction Biology Europe GmbH (formerly ProQinase)
As to the method:
as §1

The target of experiment [6] is T6, ACVR2B (Homo sapiens, UniProt Q13705).
T6 construct: purchased Reaction Biology Europe GmbH (formerly ProQinase)
T6 sequence (Q13705 19-512): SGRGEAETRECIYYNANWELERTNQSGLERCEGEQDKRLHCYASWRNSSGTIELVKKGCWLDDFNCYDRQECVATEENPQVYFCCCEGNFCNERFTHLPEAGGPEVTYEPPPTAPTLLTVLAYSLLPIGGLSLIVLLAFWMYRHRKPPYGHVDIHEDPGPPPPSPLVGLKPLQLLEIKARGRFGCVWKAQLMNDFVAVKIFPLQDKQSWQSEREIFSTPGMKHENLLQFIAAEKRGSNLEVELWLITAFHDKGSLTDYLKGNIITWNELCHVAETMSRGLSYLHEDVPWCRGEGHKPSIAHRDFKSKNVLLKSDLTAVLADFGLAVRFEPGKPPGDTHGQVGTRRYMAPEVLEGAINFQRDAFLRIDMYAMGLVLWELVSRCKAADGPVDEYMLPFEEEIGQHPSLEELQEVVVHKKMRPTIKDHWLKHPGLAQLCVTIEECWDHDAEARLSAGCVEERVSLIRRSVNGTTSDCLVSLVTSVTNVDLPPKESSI
On the procedure: as §1

The target of experiment [7] is T7, PKCα (Homo sapiens, UniProt P17252).
T7 construct: purchased Reaction Biology Europe GmbH (formerly ProQinase)
As to the method: as §1

Experiment [8] has as its target T8, ERK5 (Homo sapiens, UniProt Q13164).
T8 construct: purchased Reaction Biology Europe GmbH (formerly ProQinase)
On the procedure: as §1

Experiment [9] deals with T9, PHKG1 (Homo sapiens, UniProt Q16816).
T9 construct: purchased Reaction Biology Europe GmbH (formerly ProQinase)
T9 sequence (Q16816 whole entry): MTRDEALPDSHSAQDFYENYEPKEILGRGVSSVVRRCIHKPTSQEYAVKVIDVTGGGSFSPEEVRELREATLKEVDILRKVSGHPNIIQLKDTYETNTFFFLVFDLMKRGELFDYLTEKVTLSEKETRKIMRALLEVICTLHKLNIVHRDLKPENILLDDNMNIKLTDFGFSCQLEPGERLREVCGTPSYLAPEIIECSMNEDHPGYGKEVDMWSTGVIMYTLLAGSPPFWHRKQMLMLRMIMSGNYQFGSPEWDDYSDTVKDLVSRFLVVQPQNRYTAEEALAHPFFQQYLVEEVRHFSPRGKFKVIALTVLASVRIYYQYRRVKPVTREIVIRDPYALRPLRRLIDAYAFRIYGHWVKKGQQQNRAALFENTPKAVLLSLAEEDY
As to the method:
as §1

Experiment [10] addresses T10, PRKG1 (Homo sapiens, UniProt Q13976).
T10 construct: purchased Reaction Biology Europe GmbH (formerly ProQinase)
T10 sequence (Q13976 1-671): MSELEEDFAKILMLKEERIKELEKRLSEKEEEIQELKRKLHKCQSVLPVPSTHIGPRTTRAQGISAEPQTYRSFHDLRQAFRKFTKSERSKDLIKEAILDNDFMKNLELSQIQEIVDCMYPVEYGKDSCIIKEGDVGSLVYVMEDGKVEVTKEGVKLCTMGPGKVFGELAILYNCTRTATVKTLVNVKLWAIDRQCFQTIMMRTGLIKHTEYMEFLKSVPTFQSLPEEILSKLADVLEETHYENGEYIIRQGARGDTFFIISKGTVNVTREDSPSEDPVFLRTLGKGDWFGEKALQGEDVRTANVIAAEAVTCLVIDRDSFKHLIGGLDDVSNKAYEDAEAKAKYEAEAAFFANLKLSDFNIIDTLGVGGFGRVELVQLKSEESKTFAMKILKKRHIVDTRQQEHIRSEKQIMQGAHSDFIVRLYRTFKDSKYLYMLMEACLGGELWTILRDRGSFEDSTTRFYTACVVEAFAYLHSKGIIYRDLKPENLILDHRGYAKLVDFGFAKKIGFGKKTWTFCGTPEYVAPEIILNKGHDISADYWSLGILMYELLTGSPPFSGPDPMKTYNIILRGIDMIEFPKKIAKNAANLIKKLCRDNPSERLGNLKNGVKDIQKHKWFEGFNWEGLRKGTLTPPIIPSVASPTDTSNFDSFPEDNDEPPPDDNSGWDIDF
On the procedure: as §1

Experiment [11] addresses T11, MKK7 (Homo sapiens, UniProt O14733).
T11 construct: purchased Reaction Biology Europe GmbH (formerly ProQinase)
T11 sequence (O14733 1-419): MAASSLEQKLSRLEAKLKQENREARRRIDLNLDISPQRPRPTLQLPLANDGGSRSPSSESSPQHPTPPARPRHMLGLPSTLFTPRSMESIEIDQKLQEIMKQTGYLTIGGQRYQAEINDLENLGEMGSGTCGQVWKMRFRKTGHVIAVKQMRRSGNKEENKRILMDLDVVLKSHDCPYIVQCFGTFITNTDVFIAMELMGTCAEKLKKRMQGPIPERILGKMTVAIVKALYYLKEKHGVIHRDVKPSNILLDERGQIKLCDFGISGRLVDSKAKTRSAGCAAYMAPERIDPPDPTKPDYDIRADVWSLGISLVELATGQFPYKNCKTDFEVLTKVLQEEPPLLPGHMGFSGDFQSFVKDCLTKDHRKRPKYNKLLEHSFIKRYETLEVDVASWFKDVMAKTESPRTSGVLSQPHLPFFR
On the procedure: as §1

The target in experiment [12] is T12, RPS6KA3 (Homo sapiens, UniProt P51812).
T12 construct: purchased Reaction Biology Europe GmbH (formerly ProQinase)
As to the method: as §1

Molecules are shown by their SMILES.

T4 sequence (Q16288 32-839): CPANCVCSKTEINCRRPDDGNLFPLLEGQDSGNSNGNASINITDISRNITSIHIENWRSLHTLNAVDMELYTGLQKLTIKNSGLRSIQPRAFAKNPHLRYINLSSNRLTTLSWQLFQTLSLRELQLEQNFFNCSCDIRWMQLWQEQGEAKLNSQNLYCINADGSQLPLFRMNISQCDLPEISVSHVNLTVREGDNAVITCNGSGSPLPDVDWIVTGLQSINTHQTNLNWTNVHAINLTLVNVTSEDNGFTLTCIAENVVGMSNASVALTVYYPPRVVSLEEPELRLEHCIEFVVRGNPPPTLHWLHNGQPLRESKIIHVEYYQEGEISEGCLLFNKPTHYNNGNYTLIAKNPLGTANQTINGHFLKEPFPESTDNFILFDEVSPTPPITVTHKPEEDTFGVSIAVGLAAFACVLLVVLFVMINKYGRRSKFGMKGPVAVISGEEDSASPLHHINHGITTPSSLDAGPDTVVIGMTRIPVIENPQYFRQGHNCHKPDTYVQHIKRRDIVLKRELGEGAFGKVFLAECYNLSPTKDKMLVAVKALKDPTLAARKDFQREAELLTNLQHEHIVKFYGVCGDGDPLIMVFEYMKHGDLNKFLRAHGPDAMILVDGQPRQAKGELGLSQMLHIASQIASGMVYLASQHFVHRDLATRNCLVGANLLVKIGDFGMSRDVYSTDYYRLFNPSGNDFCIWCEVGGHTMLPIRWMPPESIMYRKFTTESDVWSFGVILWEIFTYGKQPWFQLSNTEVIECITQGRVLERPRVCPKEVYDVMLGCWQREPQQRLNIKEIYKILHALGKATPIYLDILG
T3 sequence (O60566 whole entry): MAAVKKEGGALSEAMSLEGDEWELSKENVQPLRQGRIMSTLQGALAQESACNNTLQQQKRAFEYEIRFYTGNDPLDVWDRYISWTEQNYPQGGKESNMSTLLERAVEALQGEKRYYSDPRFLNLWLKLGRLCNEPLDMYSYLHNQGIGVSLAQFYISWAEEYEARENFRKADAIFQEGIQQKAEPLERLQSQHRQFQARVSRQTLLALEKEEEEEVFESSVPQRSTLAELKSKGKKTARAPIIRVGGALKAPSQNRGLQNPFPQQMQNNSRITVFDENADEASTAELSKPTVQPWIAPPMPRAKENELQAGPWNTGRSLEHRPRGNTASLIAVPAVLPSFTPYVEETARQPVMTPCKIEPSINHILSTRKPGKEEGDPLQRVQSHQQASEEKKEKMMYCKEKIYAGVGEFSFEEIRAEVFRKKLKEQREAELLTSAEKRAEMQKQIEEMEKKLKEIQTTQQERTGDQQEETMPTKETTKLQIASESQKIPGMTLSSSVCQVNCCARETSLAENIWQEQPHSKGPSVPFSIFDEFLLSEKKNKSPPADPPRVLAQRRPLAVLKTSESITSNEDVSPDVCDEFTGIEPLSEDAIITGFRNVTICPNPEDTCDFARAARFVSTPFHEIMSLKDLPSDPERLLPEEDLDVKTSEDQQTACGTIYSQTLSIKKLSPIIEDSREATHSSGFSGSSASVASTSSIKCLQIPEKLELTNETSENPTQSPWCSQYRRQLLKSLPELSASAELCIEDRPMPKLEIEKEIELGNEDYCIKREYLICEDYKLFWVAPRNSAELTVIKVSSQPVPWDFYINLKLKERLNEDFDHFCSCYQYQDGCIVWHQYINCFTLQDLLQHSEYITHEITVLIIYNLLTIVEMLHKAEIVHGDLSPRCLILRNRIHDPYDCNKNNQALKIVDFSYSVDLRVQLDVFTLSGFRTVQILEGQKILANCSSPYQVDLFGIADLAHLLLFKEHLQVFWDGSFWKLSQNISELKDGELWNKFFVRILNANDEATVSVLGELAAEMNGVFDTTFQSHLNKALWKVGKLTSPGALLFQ
T8 sequence (Q13164 whole entry): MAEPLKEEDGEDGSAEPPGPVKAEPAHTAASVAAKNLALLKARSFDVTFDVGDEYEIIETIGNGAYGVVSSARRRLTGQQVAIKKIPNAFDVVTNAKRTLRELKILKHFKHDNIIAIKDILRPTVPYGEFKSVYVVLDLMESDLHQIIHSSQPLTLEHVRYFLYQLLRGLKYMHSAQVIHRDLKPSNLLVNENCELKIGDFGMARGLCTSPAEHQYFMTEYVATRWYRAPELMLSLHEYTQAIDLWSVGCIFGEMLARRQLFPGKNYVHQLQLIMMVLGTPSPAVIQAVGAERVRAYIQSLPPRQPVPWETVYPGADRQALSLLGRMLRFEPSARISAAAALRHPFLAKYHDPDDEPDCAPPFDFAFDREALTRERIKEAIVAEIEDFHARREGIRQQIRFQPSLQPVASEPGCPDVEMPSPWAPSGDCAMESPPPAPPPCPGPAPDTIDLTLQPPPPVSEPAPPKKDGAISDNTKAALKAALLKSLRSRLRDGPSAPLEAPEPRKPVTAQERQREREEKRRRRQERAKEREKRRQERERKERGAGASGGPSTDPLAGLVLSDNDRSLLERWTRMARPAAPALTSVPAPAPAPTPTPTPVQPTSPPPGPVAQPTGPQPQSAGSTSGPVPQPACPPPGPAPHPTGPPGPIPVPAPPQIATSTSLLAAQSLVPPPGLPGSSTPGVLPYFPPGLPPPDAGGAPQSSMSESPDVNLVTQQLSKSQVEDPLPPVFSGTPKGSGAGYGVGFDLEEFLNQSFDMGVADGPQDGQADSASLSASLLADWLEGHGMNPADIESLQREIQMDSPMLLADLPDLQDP
T1 sequence (P45983 whole entry): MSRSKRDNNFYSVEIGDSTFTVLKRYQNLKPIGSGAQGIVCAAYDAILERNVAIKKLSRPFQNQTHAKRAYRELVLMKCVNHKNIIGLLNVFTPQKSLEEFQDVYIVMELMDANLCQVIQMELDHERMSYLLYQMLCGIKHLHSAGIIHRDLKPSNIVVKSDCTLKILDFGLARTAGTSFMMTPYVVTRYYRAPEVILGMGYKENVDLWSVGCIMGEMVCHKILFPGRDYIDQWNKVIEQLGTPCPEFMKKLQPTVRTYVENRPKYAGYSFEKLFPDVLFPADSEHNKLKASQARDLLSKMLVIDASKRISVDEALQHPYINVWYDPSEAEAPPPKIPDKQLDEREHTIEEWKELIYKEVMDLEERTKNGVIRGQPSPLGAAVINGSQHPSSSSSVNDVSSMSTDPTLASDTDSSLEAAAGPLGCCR

For the molecule `COc1ccnc2[nH]cc(-c3cc(N)nc(N)c3)c12` [meriolin 16], the residual kinase activity was 102 % of control in experiment [1] (0.03 µM); 95 % of control in [1] (0.3 µM); 119 % of control in [2] (0.03 µM); 77 % of control in [2] (0.3 µM); 88 % of control in experiment [3] (0.03 µM); 81 % of control in [3] (0.3 µM). Moreover, the residual kinase activity is 72 % of control in experiment [4] (0.03 µM); 36 % of control in experiment [4] (0.3 µM); 77 % of control in experiment [5] (0.03 µM); 22 % of control in experiment [5] (0.3 µM); 81 % of control in [6] (0.03 µM); 74 % of control in experiment [6] (0.3 µM). Further, the residual kinase activity in experiment [7] (0.03 µM) is 95 % of control; in experiment [7] (0.3 µM) it was 80 % of control; in [8] (0.03 µM), 28 % of control; in [8] (0.3 µM), 22 % of control; in experiment [9] (0.03 µM), 85 % of control; in [9] (0.3 µM) it was 39 % of control. Also, the residual kinase activity in experiment [10] (0.03 µM) was 75 % of control; in [10] (0.3 µM), 30 % of control; in [11] (0.03 µM), 96 % of control; in [11] (0.3 µM), 88 % of control; in [12] (0.03 µM), 85 % of control; in [12] (0.3 µM) it was 39 % of control.

In the case of `c1ccc(CNc2cc(-c3c[nH]c4ncccc34)ccn2)cc1` [meriolin 36], the residual kinase activity in [1] (0.3 µM) is reported as 74 % of control; in experiment [1] (3 µM), 23 % of control; in experiment [2] (0.3 µM) it was 71 % of control; in [2] (3 µM), 21 % of control; in experiment [3] (0.3 µM), 89 % of control; in experiment [3] (3 µM), 73 % of control. Further, the residual kinase activity in [4] (0.3 µM) is 18 % of control; in experiment [4] (3 µM), 2 % of control; in [5] (0.3 µM), 49 % of control; in [5] (3 µM), 9 % of control; in experiment [6] (0.3 µM), 22 % of control; in experiment [6] (3 µM), 5 % of control. The residual kinase activity in [7] (0.3 µM) is listed as 49 % of control; in [7] (3 µM) it was 11 % of control; in [8] (0.3 µM), 13 % of control; in [8] (3 µM), 8 % of control; in experiment [9] (0.3 µM) it was 16 % of control; in experiment [9] (3 µM), 2 % of control. In addition, the residual kinase activity in experiment [10] (0.3 µM) was 6 % of control; in experiment [10] (3 µM), 1 % of control; in experiment [11] (0.3 µM) it was 81 % of control; in experiment [11] (3 µM), 48 % of control; in experiment [12] (0.3 µM), 7 % of control; in experiment [12] (3 µM), 1 % of control.
